Values of other authors in US20070197592A1, “Use of Paliperidone for the Treatment of Substance Abuse” (priority 2005, published 2007).

How the values were obtained:
[1] = test system: animals; conditions: cited from earlier work; for water or food consumption: at the same time as the inhibition of alcohol consumption
[2] = test system: golden hamster; conditions: cited from earlier work

Structure (SMILES) | water or food consumption [1] | alcohol consumption [1] | alcohol drinking [2] | water or food intake [2]
CN[C@H]1CC[C@@H](c2ccc(Cl)c(Cl)c2)c2ccccc21 [sertraline] | impaired water or food consumption | inhibit alcohol consumption |  | 
O=C1CC[C@@]2(O)[C@H]3Cc4ccc(O)c5c4[C@@]2(CCN3CC2CC2)[C@H]1O5 [naltrexone] | impaired water or food consumption | inhibit alcohol consumption |  | 
O=c1c(-c2ccc(O)cc2)coc2cc(O[C@@H]3O[C@H](CO)[C@@H](O)[C@H](O)[C@H]3O)ccc12 [Daidzin] |  |  | decreases alcohol drinking | without producing a decrease in water or food intake
C=CCN1CC[C@]23c4c5ccc(O)c4O[C@H]2C(=O)CC[C@@]3(O)[C@H]1C5 [naloxone] | impaired water or food consumption | inhibit alcohol consumption |  | 
